Where two headings read alike, the source gives them in different places.
System: VEGF-A mRNA expression in macrophages (RAW264.7)
Experiment: In vitro macrophage experiment: activity of compounds to promote VEGF-A mRNA expression (RT-qPCR)
Format: cell-based
Design: Expression level of VEGF-A mRNA: unit of the concentration uncertain
Settings: for fold induction at 1 µM / fold induction at 100 µM / fold induction at 500 µM / fold induction at 1000 µM / fold induction at 2000 µM / fold induction at 3000 µM: Mus musculus, read-out: Expression level of VEGF-A mRNA
From the text: 1.1. Specific steps for activity screening: 1-10×10^6 macrophages (RAW264.7) in logarithmic growth phase were transferred to a cell culture plate. The test compounds (Compounds TG-001, TG-002, TG-003, TG-004, TG-005, TG-006, TG-007, TG-008, TG-009, TG-010, TG-011, TG-012, TG-013, TG-014, TG-015, TG-016, TG-017, TG-018, TG-019, TG-020, TG-021, TG-022, TG-023, TG-024, TG-025, TG-026, TG-027, TG-028, TG-029, TG-030, TG-031, TG-032, TG-033, TG-034, TG-035, TG-036, TG-037, TG-045, TG-039, TG-040 TG-041, TG-042, TG-043, TG-044, TG-045, TG-052, TG-053, TG-054, TG-047, TG-048, TG-046, TG-049, TG-050, TG-051, TG-055 and TG-056) were respectively diluted into various concentrations, and separately added to the cell culture plate containing macrophage. The cells were cultured for 3 h in a complete medium (RPMI 1640 medium:fetal bovine serum:tri-resistance screening agent (i.e. penicillin-streptomycin-gentamicin, Beijing Leagene Biotechnology Co., Ltd.)=89:10:1 based on volume) in a cell incubator at 37° C. and 5% CO2. The cells were lyzed by Trizol (Beijing ComWin Biotech Co., Ltd) to extract RNA, and the RNA concentration was measured using a microvolume nucleic acid and protein analyzer (Nanodrop2000c). The required volume V of RNA was calculated according to the RNA concentration, and the RNA reverse transcription reaction system was prepared according to Table 1. Then RNA reverse transcription (cDNA synthesis) (RT Easy™ I (For first-strand cDNA synthesis) Reverse Transcription Kit, Chengdu ForeGene Biotechnology Co., Ltd.) was carried out according to the conditions described in Table 2. The resulting cDNA was used to prepare a fluorescence quantitative PCR reaction solution according to Table 3. The fluorescence quantitative PCR reaction conditions were set according to Table 4, and the fluorescence quantitative PCR reaction (Real time PCR Easy™-SYBR Green Fluorescence Quantification Kit, Chengdu ForeGene Biotechnology Co., Ltd.) was performed using cDNA from the reverse transcription reaction as a template. The relative expression level 2^−ΔΔCt of the target gene was calculated from the Ct value of each sample with the blank control group as a control and β-Actin as an internal reference.
Based on the maximum level of VEGF-A mRNA expression promoted by a drug at a certain concentration, the activity of the drug was determined. The expression level of VEGF-A mRNA in macrophages was defined as 1 when no drug was added. Using a traditional Chinese medicine injection Salvianolate that is used in the treatment of Cardio-cerebrovascular disease and promotes a maximum level of VEGF-A mRNA expression of 6 in macrophages (the results are shown in Table 5) as a judgment standard, the compound promoting a maximum level of VEGF-A mRNA expression of 4 or more in macrophage was a target compound. That is, when the maximum level of VEGF-A mRNA expression in macrophages promoted by the test compound is over 4-fold higher than the expression level of VEGF-A mRNA in macrophages without the addition of the test compound, the test compound was a preliminary target compound promoting angiogenesis.

[1] = 1 μM, RAW264.7 macrophages, 3 h, relative expression 2^-ΔΔCt, no drug = 1
[2] = 0.1 mM, RAW264.7 macrophages, 3 h, relative expression, no drug = 1
[3] = 0.5 mM, RAW264.7 macrophages, 3 h, relative expression, no drug = 1
[4] = 1 mM, RAW264.7 macrophages, 3 h, relative expression, no drug = 1
[5] = 2 mM, RAW264.7 macrophages, 3 h, relative expression, no drug = 1
[6] = 3 mM, RAW264.7 macrophages, 3 h, relative expression, no drug = 1

Compound	fold induction at 1 µM [1]	fold induction at 100 µM [2]	fold induction at 500 µM [3]	fold induction at 1000 µM [4]	fold induction at 2000 µM [5]	fold induction at 3000 µM [6]	other results
OC[C@H]1O[C@@H](OCCCCc2ccc(OCc3ccc(F)cc3)cc2)[C@H](O)[C@@H](O)[C@@H]1O [TG-051]	1.1	4.49	6.76	7.89	11.2	8.18	
OC[C@H]1O[C@@H](OCCCCC2CCCCC2)[C@H](O)[C@@H](O)[C@@H]1O [TG-009]	1.29	1.28	0.95	1	1.61	5.94	
TG-003							Expression level of VEGF-A mRNA [1]: 0.96; Expression level of VEGF-A mRNA (0.1 (unit uncertain), RAW264.7 macrophages, 3 h, relative expression, no drug = 1): 3.56; Expression level of VEGF-A mRNA (0.5 (unit uncertain), RAW264.7 macrophages, 3 h, relative expression, no drug = 1): 4.69; Expression level of VEGF-A mRNA (1 (unit uncertain), RAW264.7 macrophages, 3 h, relative expression, no drug = 1): 3.12; Expression level of VEGF-A mRNA (2 (unit uncertain), RAW264.7 macrophages, 3 h, relative expression, no drug = 1): 1.39; Expression level of VEGF-A mRNA (3 (unit uncertain), RAW264.7 macrophages, 3 h, relative expression, no drug = 1): 0.56
COc1ccc(CN(CCO[C@@H]2O[C@H](CO)[C@@H](O)[C@H](O)[C@H]2O)C(=O)OCc2ccccc2)cc1 [TG-034]							fold induction at 1 µM (RAW264.7, 3 h): 1.36; fold induction at 100 µM (RAW264.7, 3 h): 1.32; fold induction at 500 µM (RAW264.7, 3 h): 4.44; fold induction at 1000 µM (RAW264.7, 3 h): 2.93; fold induction at 2000 µM (RAW264.7, 3 h): 7.16; fold induction at 3000 µM (RAW264.7, 3 h): 5.43
COCCOCCOCCOCCOc1ccc(CCCCO[C@@H]2O[C@H](CO)[C@@H](O)[C@H](O)[C@H]2O)cc1 [TG-044]	0.65	1.18	1.56	1.04	0.79	0.95	
OC[C@H]1O[C@@H](OCCCCc2ccc(OCC3CCC3)cc2)[C@H](O)[C@@H](O)[C@@H]1O [TG-021]	0.87	2.69	3.81	4.24	9.2	7.96	
COc1cc(CCCCO[C@@H]2O[C@H](CO)[C@@H](O)[C@H](O)[C@H]2O)cc(OC)c1OC [TG-007]	4.38	1.67	1.42	2.87	0.65	0.99	
OC[C@H]1O[C@@H](OCCCCc2ccc(OCc3ccccc3)cc2)[C@H](O)[C@@H](O)[C@@H]1O [TG-013]	1.44	2.51	3.98	3.3	3.23	2.44	
COc1ccc(CCCCS[C@@H]2O[C@H](CO)[C@@H](O)[C@H](O)[C@H]2O)cc1 [TG-048]	1.43	1.26	4.73	11	3.81	2.19	
COc1ccccc1CCCCO[C@@H]1O[C@H](CO)[C@@H](O)[C@H](O)[C@H]1O [TG-001]	3.68	1.65	7.89	1.91	2.36	0.68	
CC1(C)CCOc2ccc(CCCCO[C@@H]3O[C@H](CO)[C@@H](O)[C@H](O)[C@H]3O)cc21 [TG-042]	11	7.25	9.86	1.11	0.63	0.84	
CC(C)(C)CCOc1ccc(CCCCO[C@@H]2O[C@H](CO)[C@@H](O)[C@H](O)[C@H]2O)cc1 [TG-040]	2.09	3.97	1.46	0.81	0.22	0.28	
OC[C@H]1O[C@@H](OCCCCc2ccc3c(c2)OCO3)[C@H](O)[C@@H](O)[C@@H]1O [TG-008]	3.34	1.38	1.42	0.61	6.28	5.46	
OC[C@H]1O[C@@H](OCCCCc2ccc(OCc3ccncc3)cc2)[C@H](O)[C@@H](O)[C@@H]1O [TG-019]	0.74	0.72	1.03	5.2	7.03	2.92	
OC[C@H]1O[C@@H](OCCCCc2ccc(OCC3COC3)cc2)[C@H](O)[C@@H](O)[C@@H]1O [TG-025]	1.62	1.78	1.43	2.15	9.69	2.06	
C=CCOc1ccc(CCCCO[C@@H]2O[C@H](CO)[C@@H](O)[C@H](O)[C@H]2O)cc1 [TG-015]	1.58	1.26	2.18	4.3	1.65	1.53	
O=[N+]([O-])c1ccc(CCCCO[C@@H]2O[C@H](CO)[C@@H](O)[C@H](O)[C@H]2O)cc1 [TG-011]	1.75	1.18	1.3	0.46	1.24	0.55	
COc1ccc(OCCCO[C@@H]2O[C@H](CO)[C@@H](O)[C@H](O)[C@H]2O)cc1 [TG-031]							fold induction at 1 µM (RAW264.7, 3 h): 0.2; fold induction at 100 µM (RAW264.7, 3 h): 0.18; fold induction at 500 µM (RAW264.7, 3 h): 0.11; fold induction at 1000 µM (RAW264.7, 3 h): 2.57; fold induction at 2000 µM (RAW264.7, 3 h): 1.39; fold induction at 3000 µM (RAW264.7, 3 h): 0.7
COc1ccc(CCS[C@@H]2O[C@H](CO)[C@@H](O)[C@H](O)[C@H]2O)cc1 [TG-047]	2.12	1.93	2.34	2.84	2.6	3.45	
OC[C@H]1O[C@@H](OCCCCc2ccc(OCC3CC3)cc2)[C@H](O)[C@@H](O)[C@@H]1O [TG-039]	1.18	2.67	9.43	1.7	0.3	0.18	
OC[C@H]1O[C@@H](OCCCCc2ccc(Br)cc2)[C@H](O)[C@@H](O)[C@@H]1O [TG-012]	1.99	2.31	3.14	0.5	2.08	4.38	
OC[C@H]1O[C@@H](OCCCCc2ccc(OCc3ccccn3)cc2)[C@H](O)[C@@H](O)[C@@H]1O [TG-022]	2.31	0.91	1.43	1.68	1.89	0.66	
